# Source: PMC11604954 (Nature Communications, 2024)
# Test system: PBMCs from A*02:01 COVID-19 convalescent individuals
# Assay type: cell-based, human
sequence,measurement,value
YLQPRTFLL,ELISpot response frequency,~ 44%
same,ELISpot: HLA-matched individuals responding / tested,11 out of 25
